# Experimental data from ChEMBL document CHEMBL3525960, “Role of catechol-O-methyltransferase in the disposition of luteolin in rats” (Drug Metab Dispos, 2011).
# Legend:
# [1] = AUC (0 to infinity) in Sprague-Dawley rat at 6.5 mg/kg, iv co-treated with COMT inhibitor entacapone; format: ADME, organism-based; design: time infinity, dose 6.5 mg/kg, route intravenous; conditions: plasma
# [2] = Clearance in Sprague-Dawley rat at 6.5 mg/kg, iv co-treated with COMT inhibitor entacapone; format: ADME, organism-based; design: dose 6.5 mg/kg, route intravenous; conditions: in vivo
# Lung [3] = assay: Drug metabolism in Sprague-Dawley rat lung homogenate assessed as 4'-O-methylated luteolin at 20 uM after 20 to 60 mins in presence of COMT inhibitor entacapone; format: ADME, tissue-based; conditions: tissue homogenate
# Liver [4] = assay: Drug metabolism in Sprague-Dawley rat liver homogenate assessed as 3'-O-methylated luteolin at 20 uM after 20 to 60 mins; format: ADME, tissue-based; conditions: tissue homogenate
# [5] = Apparent permeability in human Caco2 cells; format: ADME, cell-based; conditions: caco-2
# [6] = Drug recovery in Sprague-Dawley rat urine assessed as retention time at 6.5 mg/kg, iv by reverse-phase HPLC method; format: ADME, organism-based; design: dose 6.5 mg/kg, route intravenous; conditions: in vivo
# [7] = AUC (0 to t) in Sprague-Dawley rat at 6.5 mg/kg, iv; format: ADME, organism-based; design: dose 6.5 mg/kg, route intravenous; conditions: plasma
# Liver [8] = assay: Drug metabolism in Sprague-Dawley rat liver homogenate assessed as 3'-O-methylated luteolin at 20 uM after 20 to 60 mins in presence of COMT inhibitor entacapone; format: ADME, tissue-based; conditions: tissue homogenate
# Kidney [9] = assay: Drug metabolism in Sprague-Dawley rat kidney homogenate assessed as 4'-O-methylated luteolin at 20 uM after 20 to 60 mins; format: ADME, tissue-based; conditions: tissue homogenate
# Small intestine [10] = assay: Drug metabolism in Sprague-Dawley rat small intestine homogenate assessed as 3'-O-methylated luteolin at 20 uM after 20 to 60 mins; format: ADME, tissue-based; conditions: tissue homogenate
# [11] = AUC (0 to infinity) in Sprague-Dawley rat at 6.5 mg/kg, iv; format: ADME, organism-based; design: time infinity, dose 6.5 mg/kg, route intravenous; conditions: plasma
# Small intestine [12] = assay: Drug metabolism in Sprague-Dawley rat small intestine homogenate assessed as 4'-O-methylated luteolin at 20 uM after 20 to 60 mins in presence of COMT inhibitor entacapone; format: ADME, tissue-based; conditions: tissue homogenate
# [13] = Mean residence time (0 to t) in Sprague-Dawley rat at 6.5 mg/kg, iv co-treated with COMT inhibitor entacapone; format: ADME, organism-based; design: dose 6.5 mg/kg, route intravenous; conditions: in vivo
# [14] = Half life in Sprague-Dawley rat at 6.5 mg/kg, iv; format: ADME, organism-based; design: dose 6.5 mg/kg, route intravenous; conditions: in vivo
# Lung [15] = assay: Drug metabolism in Sprague-Dawley rat lung homogenate assessed as 3'-O-methylated luteolin at 20 uM after 20 to 60 mins in presence of COMT inhibitor entacapone; format: ADME, tissue-based; conditions: tissue homogenate
# Lung [16] = assay: Drug metabolism in Sprague-Dawley rat lung homogenate assessed as 4'-O-methylated luteolin at 20 uM after 20 to 60 mins; format: ADME, tissue-based; conditions: tissue homogenate
# [17] = Mean residence time (0 to infinity) in Sprague-Dawley rat at 6.5 mg/kg, iv co-treated with COMT inhibitor entacapone; format: ADME, organism-based; design: dose 6.5 mg/kg, route intravenous; conditions: in vivo
# Liver [18] = assay: Drug metabolism in Sprague-Dawley rat liver homogenate assessed as 4'-O-methylated luteolin at 20 uM after 20 to 60 mins; format: ADME, tissue-based; conditions: tissue homogenate
# Kidney [19] = assay: Drug metabolism in Sprague-Dawley rat kidney homogenate assessed as 4'-O-methylated luteolin at 20 uM after 20 to 60 mins in presence of COMT inhibitor entacapone; format: ADME, tissue-based; conditions: tissue homogenate
# [20] = Clearance in Sprague-Dawley rat at 6.5 mg/kg, iv; format: ADME, organism-based; design: dose 6.5 mg/kg, route intravenous; conditions: in vivo
# [21] = Mean residence time (0 to infinity) in Sprague-Dawley rat at 6.5 mg/kg, iv; format: ADME, organism-based; design: dose 6.5 mg/kg, route intravenous; conditions: in vivo
# Liver [22] = assay: Drug metabolism in Sprague-Dawley rat liver homogenate assessed as 4'-O-methylated luteolin at 20 uM after 20 to 60 mins in presence of COMT inhibitor entacapone; format: ADME, tissue-based; conditions: tissue homogenate
# [23] = Drug excretion in Sprague-Dawley rat urine at 6.5 mg/kg, iv after 24 hrs co-treated with COMT inhibitor entacapone; format: ADME, organism-based; design: dose 6.5 mg/kg, route intravenous; conditions: read-out: Drug excretion
# Small intestine [24] = assay: Drug metabolism in Sprague-Dawley rat small intestine homogenate assessed as 3'-O-methylated luteolin at 20 uM after 20 to 60 mins in presence of COMT inhibitor entacapone; format: ADME, tissue-based; conditions: tissue homogenate
# [25] = Mean residence time (0 to t) in Sprague-Dawley rat at 6.5 mg/kg, iv; format: ADME, organism-based; design: dose 6.5 mg/kg, route intravenous; conditions: in vivo
# [26] = Half life in Sprague-Dawley rat at 6.5 mg/kg, iv co-treated with COMT inhibitor entacapone; format: ADME, organism-based; design: dose 6.5 mg/kg, route intravenous; conditions: in vivo
# [27] = Drug absorption in human Caco2 cells; format: ADME, cell-based; conditions: caco-2
# Kidney [28] = assay: Drug metabolism in Sprague-Dawley rat kidney homogenate assessed as 3'-O-methylated luteolin at 20 uM after 20 to 60 mins in presence of COMT inhibitor entacapone; format: ADME, tissue-based; conditions: tissue homogenate
# Small intestine [29] = assay: Drug metabolism in Sprague-Dawley rat small intestine homogenate assessed as 4'-O-methylated luteolin at 20 uM after 20 to 60 mins; format: ADME, tissue-based; conditions: tissue homogenate
# Kidney [30] = assay: Drug metabolism in Sprague-Dawley rat kidney homogenate assessed as 3'-O-methylated luteolin at 20 uM after 20 to 60 mins; format: ADME, tissue-based; conditions: tissue homogenate
# [31] = Drug metabolism in Sprague-Dawley rat erythrocytes homogenate assessed as 3'-O-methylated luteolin at 20 uM after 20 to 60 mins; format: ADME, cell-based; conditions: erythrocyte
# [32] = Volume of distribution in Sprague-Dawley rat at 6.5 mg/kg, iv co-treated with COMT inhibitor entacapone; format: ADME, organism-based; design: dose 6.5 mg/kg, route intravenous; conditions: in vivo
# [33] = Drug excretion in Sprague-Dawley rat urine at 6.5 mg/kg, iv after 24 hrs; format: ADME, organism-based; design: dose 6.5 mg/kg, route intravenous; conditions: read-out: Drug excretion
# [34] = Drug metabolism in Sprague-Dawley rat erythrocytes homogenate assessed as 4'-O-methylated luteolin at 20 uM after 20 to 60 mins; format: ADME, cell-based; conditions: erythrocyte
# Lung [35] = assay: Drug metabolism in Sprague-Dawley rat lung homogenate assessed as 3'-O-methylated luteolin at 20 uM after 20 to 60 mins; format: ADME, tissue-based; conditions: tissue homogenate
# [36] = Drug metabolism in Sprague-Dawley rat erythrocytes homogenate assessed as 3'-O-methylated luteolin at 20 uM after 20 to 60 mins in presence of COMT inhibitor entacapone; format: ADME, cell-based; conditions: erythrocyte
# [37] = AUC (0 to t) in Sprague-Dawley rat at 6.5 mg/kg, iv co-treated with COMT inhibitor entacapone; format: ADME, organism-based; design: dose 6.5 mg/kg, route intravenous; conditions: plasma
# [38] = Volume of distribution in Sprague-Dawley rat at 6.5 mg/kg, iv; format: ADME, organism-based; design: dose 6.5 mg/kg, route intravenous; conditions: in vivo
# [39] = Drug metabolism in Sprague-Dawley rat erythrocytes homogenate assessed as 4'-O-methylated luteolin at 20 uM after 20 to 60 mins in presence of COMT inhibitor entacapone; format: ADME, cell-based; conditions: erythrocyte
compound,measurement,setting,value
O=c1cc(-c2ccc(O)c(O)c2)oc2cc(O)cc(O)c12 [LUTEOLIN],AUC(0-inf),[1],12500 ng·h/mL
same,clearance,[2],8.95 mL/min/kg
same,Drug metabolism,Lung [3],metabolite_not_detected
same,Drug metabolism,Liver [4],metabolite_detected
same,Papp,[5],5.8 ×10⁻⁶ cm/s
same,Retention_time,[6],15.46 min
same,AUC(0-t),[7],7600 ng·h/mL
same,Drug metabolism,Liver [8],metabolite_not_detected
same,Drug metabolism,Kidney [9],metabolite_detected
same,Drug metabolism,Small intestine [10],metabolite_detected
same,AUC(0-inf),[11],8180 ng·h/mL
same,Drug metabolism,Small intestine [12],metabolite_not_detected
same,MRT last,[13],1.65 h
same,half-life,[14],3.2 h
same,Drug metabolism,Lung [15],metabolite_not_detected
same,Drug metabolism,Lung [16],metabolite_detected
same,MRT inf,[17],2.68 h
same,Drug metabolism,Liver [18],metabolite_detected
same,Drug metabolism,Kidney [19],metabolite_not_detected
same,clearance,[20],13.4 mL/min/kg
same,MRT inf,[21],2.32 h
same,Drug metabolism,Liver [22],metabolite_not_detected
same,dose excreted at 24 h,[23],7.32%
same,Drug metabolism,Small intestine [24],metabolite_not_detected
same,MRT last,[25],1.41 h
same,half-life,[26],3.31 h
same,Drug absorption,[27],20%
same,Drug metabolism,Kidney [28],metabolite_not_detected
same,Drug metabolism,Small intestine [29],metabolite_detected
same,Drug metabolism,Kidney [30],metabolite_detected
same,Drug metabolism,[31],metabolite_detected
same,Vd,[32],2.57 L/kg
same,dose excreted at 24 h,[33],5.12%
same,Drug metabolism,[34],metabolite_detected
same,Drug metabolism,Lung [35],metabolite_detected
same,Drug metabolism,[36],metabolite_not_detected
same,AUC(0-t),[37],11400 ng·h/mL
same,Vd,[38],3.74 L/kg
same,Drug metabolism,[39],metabolite_not_detected
